Test results as given in US20230372382A1, “USE OF ADENOSINE DIPHOSPHATE RIBOSE FOR ADJUVANT THERAPY WITH RADIATION AND/OR ANTI-CANCER TREATMENT” (PearlsInMires Co., Ltd., priority 2021, published 2023).

How the values were obtained:
[1] = tested on: Pancreatic cancer (AsPC-1) cells; assay: Cell death by combination treatment with anti-cancer drug (MTT); format: cell-based; conditions: Homo sapiens, ASPC1, 24 h
Experimental: 3×10^3 Brain cancer (U-87MG), lung cancer (H1975), pancreatic cancer (Aspc-1), liver cancer (Hep G2), breast cancer (MDA-MB-231), and colon cancer (HCT116) cells were cultured in a 96-well plate for 24 hours under conditions of 37° C. and 5% Ca2, respectively. […] After the treatment was terminated, the cells were cultured for 24 hours under conditions of 37° C. and 5% CO2 again, 10 μl of 3-(4,5-dimethylthiazol-2-yl)-2,5-diphenyltetrazolium bromide reagent was added to each well and reacted for 1 hour. After the reaction was completed, the reagent was removed, 200 μl of dimethyl sulfoxide was added to each well, and the absorbance was measured to compare the degree of cell death.
Then, 10 μl of 3-(4,5-dimethylthiazol-2-yl)-2,5-diphenyltetrazolium bromide reagent was added to each well and reacted for 1 hour. After the reaction was completed, the reagent was removed, 200 μl of dimethyl sulfoxide was added to each well, and the absorbance was measured to confirm cell viability.

[2] = tested on: Liver cancer (Hep G2) cells; assay: Xenograft model, combination with anti-cancer drug, tumor volume; format: in vivo, BALB/c nude mice
Experimental: Brain (U-87MG), lung (H1975), pancreatic (AsPC-1), or liver (Hep G2) cells (1×10^7 cells) were inoculated into 5-week-old BALB/c nude mice on the back flank, respectively. Then, when tumors were grown to a volume of approximately 150 mm^3, the mice were divided into the control group (control), an anti-cancer drug alone treatment group, and a combination treatment group. […] The tumor size was measured every 6 days using a digital caliper, and the results of changes in tumor volume were compared by the group.
Liver cancer (Hep G2) cells (1×10^7) were inoculated into 5-week-old BALB/c nude mice on the back flank, and the mice were divided into three groups: the control group (Control), single oral administration of 10 mg/kg of sorafenib, and combination administration of sorafenib+10 mg/kg of ADP-ribose. When the tumors were grown to a volume of approximately 150 mm^3, sorafenib was administered orally 5 times a week, and ADP-ribose at 10 mg/kg was injected subcutaneously 3 times a week. The tumor size was measured using a digital caliper, and the results of changes in tumor volume were compared by the group.

AsPC-1 cells = assay: Change over time in intracellular ADP-ribose, radiation versus ADP-ribose treatment (ELISA); format: cell-based; conditions: AsPC-1, 2 μM ADP-ribose, even after 24 hours; after radiation back to untreated level from 16 hours
Experimental: Brain cancer (U-87MG), kidney cancer (Caki-1), pancreatic cancer (AsPC-1), or breast cancer (MDA-MB-231) cells were cultured in a 6-well plate, respectively, and the cells were divided into the untreated group, the radiation-treated group, and the ADP-ribose-treated group. Irradiation was performed using an X-Rad 320 irradiator (Precision X-ray, North Branford, CT, USA), and cancer cells were treated with a total of 1, 2, and 5 Gy at a dose rate of 300 kVp and 150 cGy/min using an X-ray beam filter composed of 12.5 mA and 2.0 mm Al, respectively. Before treatment and at 4, 8, 16, and 24 hours after treatment, the medium was removed, the cells were washed with phosphate-buffered saline, and then RIPA buffer was added and the products were left on ice for 20 minutes. After scraping the cells, the cells were put in a centrifuge tube and centrifuged for 10 minutes at 10,000 g and 4° C. The supernatant was obtained, and 1% SDS was added, and then the reaction product was boiled at 100° C. for 5 minutes and cooled on ice. The supernatant was centrifuged again at 10,000 g and 4° C. for 10 minutes to obtain the final supernatant, and ADP-ribose was quantitatively analyzed using an ELISA analysis kit (Cell Biolabs, Inc., San Diego, CA, USA). […]

MDA-MB-231 cells = assay: ADP-ribose quantitative analysis (ELISA) in cancer cells; format: cell-based; conditions: 16 μM ADP-ribose, 24 hours, P<0.001
Experimental: After culturing, the culture medium was removed, the cells were washed with phosphate-buffered saline, and then RIPA buffer was added and the cells were left on ice for 20 minutes. After scraping the cells, the cells were put in a centrifuge tube and centrifuged for 10 minutes at 10,000 g and 4° C. The supernatant was obtained, and 1% SDS was added, and then the reaction product was boiled at 100° C. for 5 minutes and cooled on ice. The supernatant was centrifuged again at 10,000 g and 4° C. for 10 minutes to obtain the final supernatant, and ADP-ribose was quantitatively analyzed and compared using an ELISA analysis kit (Cell Biolabs, Inc., San Diego, CA, USA).
5×10^5 MDA-MB-231 cells were divided into the untreated group and 16 μM ADP-ribose-treated group and cultured in Leibovitz's L-15 medium supplemented with 10% fetal calf serum+100 units/ml penicillin+100 μg/ml streptomycin under conditions of 37° C. and 5% CO2 for 24 hours. The medium of the cultured cells was removed, and the supernatant prepared by treatment with RIPA buffer and 1% sodium dodecyl sulfate (SDS) was used for ELISA analysis to detect and analyze ADP-ribose.

U-87MG cells = assay: Cell death by combination treatment of ADP-ribose and radiation (MTT); format: cell-based; conditions: 8 μM ADP-ribose in combination with 2 Gy radiation, 24 hours, P<0.001, 2 Gy alone about 88%
Experimental: 3×10^3 Brain cancer (U-87MG) cells were cultured in a 96-well plate for 24 hours under conditions of 37° C. and 5% CO2, treated with 8 μM of ADP-ribose and 2 or 5 Gy dose of radiation individually or in combination, and cultured for 24 hours under conditions of 37° C. and 5% CO2 again. Then, 10 μl of 3-(4,5-dimethylthiazol-2-yl)-2,5-diphenyltetrazolium bromide reagent was added to each well and reacted for 1 hour. After the reaction was completed, the reagent was removed, 200 μl of dimethyl sulfoxide was added to each well, and the absorbance was measured to confirm cell viability.

[3] = tested on: Pancreatic cancer (AsPC-1) cells; assay: Xenograft model, subcutaneous ADP-ribose, tumor volume; format: in vivo, BALB/c nude mice; conditions: AsPC-1 xenograft, 3 times a week, control about 2155.8
Experimental: Pancreatic cancer (AsPC-1) or kidney cancer (Caki-1) cells (1×10^7 cells) were inoculated into 5-week-old BALB/c nude mice on the back flank, and the mice were grown up to approximately 150 mm^3 of the tumor volume. Then, three concentrations of ADP-ribose were administered subcutaneously, intravenously, and orally 3 times a week. The tumor size was measured every 6 days using a digital caliper, and the changes in tumor volume were compared for each group.
Pancreatic cancer (AsPC-1) cells (1×10^7) were inoculated into 5-week-old BALB/c nude mice on the back flank, and the mice were divided into four groups: the control group (Control) and groups injected subcutaneously with 2, 20, and 40 mg/kg of ADP-ribose. When the tumors were grown to a volume of approximately 150 mm^3, each concentration of ADP-ribose was subcutaneously injected 3 times a week. The tumor size was measured using a digital caliper, and the results of changes in tumor volume were compared by the group.

Caki-1 cells = assay: Cell death by combination treatment of ADP-ribose and radiation (MTT); format: cell-based; conditions: Caki-1, 16 μM ADP-ribose in combination with 2 Gy radiation, 24 hours, P<0.001; 2 Gy alone about 94.7%
Experimental: 3×10^3 Caki-1 cells were cultured in a 96-well plate for 24 hours under conditions of 37° C. and 5% CO2, treated with 16 μM of ADP-ribose and 2 or 5 Gy dose of radiation individually or in combination, and cultured for 24 hours under conditions of 37° C. and 5% CO2 again. Then, 10 μl of 3-(4,5-dimethylthiazol-2-yl)-2,5-diphenyltetrazolium bromide reagent was added to each well and reacted for 1 hour. After the reaction was completed, the reagent was removed, 200 μl of dimethyl sulfoxide was added to each well, and the absorbance was measured to confirm cell viability.

[4] = tested on: Liver cancer (Hep G2) cells; assay: Cell death by combination treatment with anti-cancer drug (MTT); conditions: Homo sapiens, HepG2, 24 h, read-out: viability of cancer cells
Experimental: 3×10^3 Liver cancer (Hep G2) cells were cultured in a 96-well plate for 24 hours under conditions of 37° C. and 5% CO2, treated with ADP-ribose at a concentration of 1.6 μM and sorafenib at 1 μM, individually or in combination, and cultured for 24 hours under conditions of 37° C. and 5% CO2 again. Then, 10 μl of 3-(4,5-dimethylthiazol-2-yl)-2,5-diphenyltetrazolium bromide reagent was added to each well and reacted for 1 hour. After the reaction was completed, the reagent was removed, 200 μl of dimethyl sulfoxide was added to each well, and the absorbance was measured to confirm cell viability.

[5] = ADP-ribose 10 mg/kg s.c. in combination with sorafenib 10 mg/kg, P<0.001

Nc1ncnc2c1ncn2[C@@H]1O[C@H](COP(=O)(O)OP(=O)(O)OC[C@H]2O[C@@H](O)C(O)C2O)C(O)C1O (stereo partly drawn) [ADP-ribose, adenosine diphosphate ribose]
viability at 1.6 µM [1]: ~1% | reduction of tumor volume compared to the control group [2, 5]: about 76% | reduction of tumor volume compared to the group treated with sorafenib alone [2, 5]: about 70% | final tumor volume ([2]; ADP-ribose 10 mg/kg subcutaneous 3 times a week in combination with sorafenib 10 mg/kg, control about 2322.4): about 546 mm^3 | amount of ADP-ribose in the cells over time compared to the control group (AsPC-1 cells): maintained a significant (P<0.001) increase | amount of ADP-ribose in cells compared to the control group (MDA-MB-231 cells): remarkably increased significantly | survival rate of cancer cells (U-87MG cells): about 12.3% | final tumor volume ([3]; 2 mg/kg subcutaneous): 1015.8 mm^3 | final tumor volume ([3]; 20 mg/kg subcutaneous): 496.6 mm^3 | final tumor volume ([3]; 40 mg/kg subcutaneous): 336.2 mm^3 | survival rate of cancer cells (Caki-1 cells): about 22.7% | viability at 1.6 µM [4]: ~0.9%
